From EP0942911B1, “BENZOPYRANOPYRROLE AND BENZOPYRANOPYRIDINE ALPHA-1 ADRENERGIC COMPOUNDS” (Abbott Laboratories, priority 1996, dated 1998) come the findings set out here.

Structures can show the parent of a compound that is named as a salt. Where two headings read alike, the source gives them in different places.

Holding throughout (assay): biochemical
Experiment [1] addresses T1, α-1A adrenoreceptor (rat submaxillary gland) (Rattus norvegicus, UniProt P43140).
T1 sequence (P43140 1-466): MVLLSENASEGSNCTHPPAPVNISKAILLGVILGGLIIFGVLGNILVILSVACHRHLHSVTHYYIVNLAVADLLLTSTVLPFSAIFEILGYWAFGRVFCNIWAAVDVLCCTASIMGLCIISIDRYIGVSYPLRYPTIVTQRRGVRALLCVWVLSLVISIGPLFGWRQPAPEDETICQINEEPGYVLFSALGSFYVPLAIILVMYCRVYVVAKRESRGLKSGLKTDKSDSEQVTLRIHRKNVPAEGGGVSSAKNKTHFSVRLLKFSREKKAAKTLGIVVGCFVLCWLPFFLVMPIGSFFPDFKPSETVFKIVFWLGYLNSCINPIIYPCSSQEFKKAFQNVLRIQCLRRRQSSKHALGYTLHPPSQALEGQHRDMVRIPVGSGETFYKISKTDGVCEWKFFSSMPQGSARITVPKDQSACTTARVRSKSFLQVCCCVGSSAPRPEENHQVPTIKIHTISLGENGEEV
Type of experiment: binding. As to conditions: read-out: Radioligand Binding (Ki, nM) 1A (Rat). On the procedure: Additionally, binding affinity against the pharrnacologically defined α-1A adrenoreceptor (rat submaxillary gland) was measured.
(§1) On the fifth day of culture, growth medium was removed from cells grown in roller bottles, and the cells were washed twice with PBS (Sigma, 120 mM NaCl, 2.7 mM KCl, 10 mM Na2HPO4-NaH2PO4, pH = 7.4). Cells were detached from the roller bottles by incubating for 15 minutes at 37 °C in a Tris-EDTA solution (10 mM Tris, 100 mM NaCl, 1 mM EDTA, pH = 7.4). The cell suspension from each roller bottle was decanted into tared centrifuge tubes and kept on ice. An aliquot of each cell suspension was generally taken for cell counting. Cells were centrifuged at 3000 X G for 5 min at 2-4 °C, washed with PBS and recentrifuged. The supernatant was decanted and the pellet weighed to determine the wet weight of cells. Cells were washed a final time in 40 vol 5 mM Tris-HCl, 5 mM EDTA, pH = 7.7, and centrifuged at 40,000 X G for 10 minutes. Cells were homogenized in 10 mL of 50 mM Tris-HCl, 5 mM EDTA (pH = 7.4) and diluted to 40 mL/tube. Homogenates were centrifuged at 40,000 X G for 10 minutes. The supernatant was decanted and the pellets rehomogenized in 50 mM Tris-HCl (pH = 7.4) and centrifuged as before. The supernatant was decanted and the homogenate resuspended in 6.25 volumes (per gram wet weight) of 50 mM Tris-HCl and aliquots of the pooled homogenates frozen in liquid N2 and stored at -70 °C until the time of assay. Rat submaxillary glands were used for α-1A adrenoreceptors and were prepared essentially as described (Michel, A. D., Loury, D. N. and Whiting, R. L., Brit. J. Pharmacol. 98: 83-889 (1989)).
(§2) Receptor binding assays for α-1 adrenoreceptors were performed essentially as described by Greengrass and Bremner (Eur. J. Pharmacol. 55: 323-326 (1979)). […] Radioactivity was determined by standard liquid scintillation techniques. Data were analyzed as previously described (Hancock, A. A., Kyncl, J. J., Martin, Y. C. and DeBernardis, J. F., J. Receptor Res. 8: 23-46 (1988)).

In experiment [2] the target is T2, α-1a adrenoreceptor (Bos taurus, UniProt P18130).
T2 sequence (P18130 1-466): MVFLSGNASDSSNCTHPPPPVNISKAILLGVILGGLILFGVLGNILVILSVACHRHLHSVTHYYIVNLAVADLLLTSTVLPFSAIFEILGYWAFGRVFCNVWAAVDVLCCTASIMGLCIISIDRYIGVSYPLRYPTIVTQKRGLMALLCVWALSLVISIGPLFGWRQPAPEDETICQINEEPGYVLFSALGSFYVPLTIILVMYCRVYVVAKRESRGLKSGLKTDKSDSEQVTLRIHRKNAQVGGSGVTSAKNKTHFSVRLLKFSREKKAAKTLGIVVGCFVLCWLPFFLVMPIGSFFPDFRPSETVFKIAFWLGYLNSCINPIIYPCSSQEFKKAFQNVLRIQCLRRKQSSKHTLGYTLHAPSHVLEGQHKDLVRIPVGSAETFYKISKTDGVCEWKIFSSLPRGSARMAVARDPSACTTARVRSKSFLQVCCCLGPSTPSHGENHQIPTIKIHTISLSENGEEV
It counts as binding, bovine. The note with it: read-out: Radioligand Binding (Ki, nM) 1a (Bovine).
Source text: (§3) The cDNA clones encoding the α-1 adrenoreceptors (α-1a, α-1b, and α-1d) were obtained from TULCO (Triangle Universities Licensing Consortium, Research Triangle Park, NC) and inserted into the eukaryotic expression vector SnaB30. In this vector, expression of the adrenoreceptor gene is under the transcriptional control of an SV40 early promoter. Positive drug selection is provided by a neomycin-resistance gene. Mouse fibroblast cells (LTK) were transfected with the α1 expression plasmids and grown in Dulbecco's modified Eagle's medium (DMEM) containing 10% fetal calf serum and 30 µM G418. Stable G418-resistant parental lines were generated, with successful expression of adrenoreceptor protein monitored using radioligand binding techniques. Stable single cell clones derived from the parental lines were screened in adrenoreceptor binding assays to identify clones having high adrenoreceptor density. Roller bottle cultures of the cloned lines were used to provide cell membranes for subsequent adrenoreceptor binding characterization studies. A cell line containing the SnaB30 vector expressing the human erythropoietin gene served as a negative control.
(§4) For adrenoreceptor binding assays, large scale membrane preparations were utilized in which 6 million cells were seeded into small (450 cm^2) Corning tissue culture roller bottles. 200 mL of DMEM containing 10% fetal calf serum and 300 µM G418 were added to each roller bottle. A 95% air / 5% CO2 gas mixture (sterile) was injected into each roller bottle prior to sealing. The bottles were then incubated at 37 °C on a roller rack for 5 days. Cells were re-fed with fresh medium after 3 days in culture.
as §1, §2

Experiment [3] deals with T3, α-1b adrenoreceptor (Mesocricetus auratus, UniProt P18841).
T3 sequence (P18841 1-515): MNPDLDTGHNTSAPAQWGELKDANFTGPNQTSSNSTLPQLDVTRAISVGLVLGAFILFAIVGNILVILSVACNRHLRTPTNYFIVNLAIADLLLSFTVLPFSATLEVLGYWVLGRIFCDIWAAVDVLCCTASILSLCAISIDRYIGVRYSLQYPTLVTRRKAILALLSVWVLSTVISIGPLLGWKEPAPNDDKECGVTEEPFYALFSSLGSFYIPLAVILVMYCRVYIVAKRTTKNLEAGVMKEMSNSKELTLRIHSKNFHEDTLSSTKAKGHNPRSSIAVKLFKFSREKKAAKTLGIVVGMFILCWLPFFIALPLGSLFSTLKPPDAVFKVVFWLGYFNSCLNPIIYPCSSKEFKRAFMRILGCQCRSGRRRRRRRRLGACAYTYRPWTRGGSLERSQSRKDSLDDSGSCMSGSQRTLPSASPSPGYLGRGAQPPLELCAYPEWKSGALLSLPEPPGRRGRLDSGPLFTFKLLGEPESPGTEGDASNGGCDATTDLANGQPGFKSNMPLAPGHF
It counts as binding, hamster. As to conditions: read-out: Radioligand Binding (Ki, nM) 1b (Hamster).
Source text: as §3, §4, §1, §2

In experiment [4] the target is T4, α-1d adrenoreceptor (Rattus norvegicus, UniProt P23944).
T4 sequence (P23944 1-561): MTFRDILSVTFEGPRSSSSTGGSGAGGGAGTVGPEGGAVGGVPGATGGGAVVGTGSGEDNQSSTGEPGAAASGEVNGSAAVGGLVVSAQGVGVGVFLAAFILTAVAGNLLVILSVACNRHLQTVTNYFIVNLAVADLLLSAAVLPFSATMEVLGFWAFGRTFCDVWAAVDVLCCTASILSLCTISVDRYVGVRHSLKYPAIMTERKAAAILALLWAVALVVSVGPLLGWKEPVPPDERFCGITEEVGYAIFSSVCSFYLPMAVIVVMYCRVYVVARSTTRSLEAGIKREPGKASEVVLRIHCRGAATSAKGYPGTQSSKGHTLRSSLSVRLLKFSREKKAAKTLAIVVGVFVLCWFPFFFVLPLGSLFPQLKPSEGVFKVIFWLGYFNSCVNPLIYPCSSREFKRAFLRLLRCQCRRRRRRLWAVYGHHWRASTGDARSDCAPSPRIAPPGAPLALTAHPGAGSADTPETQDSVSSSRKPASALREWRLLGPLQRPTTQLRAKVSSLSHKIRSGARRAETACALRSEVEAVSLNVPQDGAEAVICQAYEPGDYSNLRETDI
It counts as binding. The note with it: read-out: Radioligand Binding (Ki, nM) 1d (Rat).
Source text: as §3, §4, §1, §2

Where [5] appears, read: [3H]-prazosin radioligand, cloned receptor in LTK cell membranes.

The Ki is a dissociation constant, usually derived from enzyme kinetics or from competition with a known ligand. Consider “3-[2-((±)-trans-10-Methoxy-1,3,4,4a,5,10b-hexahydro-2H-[1]-benzopyrano[3,4-c]pyrido-3-yl)ethyl]-6,7-dimethoxy-quinazoline-2,4(1H,3H)-dione hydrochloride [Example 91]”, for which the Ki was found to be 0.102 nM in experiment [1] ([3H]-prazosin radioligand, rat submaxillary gland membranes); 0.066 nM in experiment [2] (setting [5]); 1.46 nM in experiment [3] (setting [5]); 0.495 nM in experiment [4] (setting [5]).
With `O=c1[nH]c2c(sc3cccnc32)c(=O)n1CCCCN1C[C@@H]2COc3ccccc3[C@H]2C1` (racemic) [Example 71, 3-[4-((±)-trans-1,2,3,3a,4,9b-hexahydro-[1]-benzopyrano[3,4-c]pyrrol-2-yl)butyl]-pyrido[2',3':4,5]thieno[3,2-d]pyrimidine-2,4(1H,3H)-dione hydrochloride], the Ki came to 0.065 nM in experiment [1], 0.068 nM in experiment [2], 0.634 nM in experiment [3] and 0.169 nM in experiment [4].
For the compound `COc1cccc2c1[C@H]1CN(CCCCn3c(=O)[nH]c4c(sc5cccnc54)c3=O)C[C@@H]1CO2` (racemic) [Example 72, 3-[4-((±)-trans-9-Methoxy-1,2,3,3a,4,9b-hexahydro-[1]-benzopyrano[3,4-c]pyrrol-2-yl)butyl]-pyrido[2',3':4,5]thieno[3,2-d]pyrimidine-2,4(1H,3H)-dione dihydrochloride], the Ki in experiment [1] is 0.107 nM; in experiment [2], 0.133 nM; in experiment [3] it was 3.54 nM; in experiment [4] it was 0.804 nM.
The like results for `COc1cccc2c1[C@@H]1CN(CCCCn3c(=O)[nH]c4c(sc5cccnc54)c3=O)C[C@@H]1CO2` (racemic) [Example 73, 3-[4-((±)-cis-9-Methoxy-1,2,3,3a,4,9b-hexahydro-[1]-benzopyrano[3,4-c]pyrrol-2-yl)butyl]-pyrido[2',3':4,5]thieno[3,2-d]pyrimidine-2,4[1H,3H)-dione dihydrochloride] were, in that order, 0.087 nM, 0.038 nM, 1.31 nM and 0.187 nM.
For the compound `COc1ccc2c(c1)[C@@H]1CN(CCCCn3c(=O)[nH]c4c(sc5ncccc54)c3=O)C[C@@H]1CO2` (racemic) [Example 75, 3-[4-((±)-cis-8-Methoxy-1,2,3,3a,4,9b-hexahydro-[1]-benzopyrano[3,4-c]pyrrol-2-yl)butyl]-pyrido[3',2':4,5]thieno[3,2-d]pyrimidine-2,4(1H,3H)-dione dihydrochloride], the Ki in experiment [1] is 5.73 nM; in experiment [2], 1.89 nM; in experiment [3], 52.1 nM; in experiment [4], 18.3 nM.
Take `COc1ccc2c(c1)[C@@H]1CN(CCCCn3c(=O)[nH]c4c(sc5nccnc54)c3=O)C[C@@H]1CO2` (racemic) [Example 76, 3-[4-((±)-cis-8-Methoxy-1,2,3,3a,4,9b-hexahydro-[1]-benzopyrano[3,4-c]pyrrol-2-yl)butyl]-pyrazino[2',3':4,5]thieno[3,2-d]pyrimidine-2,4(1H,3H)-dione hydrochloride]: the Ki in experiment [1] turned out to be 11.7 nM; in experiment [2], 6.21 nM; in experiment [3] it was 78.6 nM; in experiment [4], 12.9 nM.
For `COc1ccc2c(c1)[C@@H]1CN(CCCn3c(=O)[nH]c4c(sc5ncccc54)c3=O)C[C@@H]1CO2` (racemic) [Example 77, 3-[3-((±)-cis-8-Methoxy-1,2,3,3a,4,9b-hexahydro-[1]-benzopyrano[3,4-c]pyrrol-2-yl)propyl]-pyrido[3',2':4,5]thieno[3,2-d]pyrimidine-2,4(1H,3H)-dione hydrochloride], the Ki in experiment [1] stood at 99.7 nM; in experiment [2], 27 nM; in experiment [4], 106 nM.
Consider `COc1ccc2c(c1)[C@@H]1CN(CCn3c(=O)[nH]c4c(sc5ncccc54)c3=O)C[C@@H]1CO2` (racemic) [Example 78, 3-[2-((±)-cis-8-Methoxy-1,2,3,3a,4,9b-hexahydro-[1]-benzopyrano[3,4-c]pyrrol-2-yl)ethyl]-pyrido[3',2':4,5]thieno[3,2-d]pyrimidine-2,4(1H,3H)-dione hydrochloride], for which the Ki in experiment [1] was 0.297 nM; in experiment [2] it was 0.122 nM; in experiment [3], 1.88 nM; in experiment [4] it was 0.478 nM.
